Where “and” joins values, the source holds several entries; their conditions need not be identical. Equal entries are not always repeated. Where two headings read alike, the source gives them in different places.
Tests used:
[1] = Measurement of serum half life (pharmacokinetics) in mice; type: in vivo
Protocol: Tests were performed to determine whether JWZ-7-7 is capable of maintaining sufficiently high blood levels for killing SCLC and DLBCL. Formulations for either IV or IP administration were prepared as follows:
• Concentration: 0.6 mg/ml • Composition: 5/5/90 DMSO/Tween80/saline • Dose: 5 μl/g body weight • Appearance: clear solution Formulation #2—Used for IP Animals • Concentration: 1 mg/ml • Composition: 5/5/90 DMSO/Tween80/saline • Dose: 10 μl/g body weight • Appearance: clear solution
After either IV or IP injection of 3 mice each with either 3 mg/Kg (IV) or 10 mg/Kg(IP), the levels of JWZ-7-7 were measured at the indicated intervals. The calculated T1/2 is 4.47 hours for IV injection and 5.63 hours for […].

[2] = test system: primary human fibroblasts; experiment: Cell viability of primary human fibroblasts; type: cell-based; details: 72 hours, read-out: EC50 of killing of fibroblasts
Protocol: (§1) Lymphoma and leukemia cells were cultured in RPMI-1640 (ATCC 30-2001)+10% FBS with antibiotics (100× PenStrep GIBCO #15140122). Primary human fibroblasts were obtained from ATCC (#CRL2522), cultured in DMEM+10% FBS with antibiotics and used at passages 3-5. Primary human tonsillar lymphocytes were a kind gift from M. M. Davis. Cells were routinely checked for mycoplasma and immediately checked upon suspicion. No cultures tested positive.
(§2) 30,000 cells were plated in 100 μL media per well of a 96 well plate and treated with drug for indicated times and doses. A resazurin-based indicator of cell health (PrestoBlue, ThermoFisher #P50200) was added for 1.5 hours after which the fluorescence ratio at 560/590 nm was recorded. The background fluorescence was subtracted and the signal was normalized to DMSO-treated cells. EC50 measurements on cell lines were done with 4 biological repeats by separate cell passages maintained by 3 independent investigators. Fit of dose-response curves to data and statistical analysis was performed using drc package in R using the four-parameter log-logistic function.
(§3) After treatment, mouse tissue was harvested for RNA-seq and histology. […] Serum concentrations after 8 hours were -100 to 400-fold higher than therapeutic doses (FIG. 37, Panel C).

[3] = Mouse tolerability and pharmacokinetic study; type: in vivo
Protocol: Vehicle was the same formulation (5/5/80 DMSO/Tween-80/Saline). The formulation was checked to be a clear solution and after administration, the animal was put back in its cage. For PK properties, plasma levels were measured at 0, 5, 15, 30, 60, 120, 240, 360, and 480 mins after drug administration. For tolerability work, bodyweights and observation of animal health were recorded each day through 5 days of dosing once daily. After 5 days, tissues were collected 8 hours after the last drug administration and split into one part for RNA-seq, homogenized in TRIzoI (Thermo #15596026), another part for histology, snap-frozen, and another part for measurement of drug levels where molar concentrations were recorded with the assumption of 1 g tissue ~1 mL. FFPE blocks (on snap-frozen tissue) and H & E staining were done by the Stanford Histology/Pathology Service Core, by Prof. Hannes Vogel, MD and Pauline Chu.
After treatment, mouse tissue was harvested for RNA-seq and histology.

BRD4^BD1 = target: T1, BRD4^BD1 (Homo sapiens, UniProt O60885); experiment: Isothermal calorimetry (ITC), binary titration; type: binding; details: read-out: KD BRD4:TCIP1
T1 construct: 6xHis-TEV (N, cleaved yes)
From the text: The first one or two injections and outliers from instrument noise were routinely excluded. Data was fit to a one-site model using MicroCal LLC Origin software.
One reason for a broadening of the hook effect is the formation of cooperative protein-protein interactions induced by the drug, such as a molecular glue.

KARPAS422 = experiment: Cell cycle and TUNEL analysis in KARPAS422 cells; type: cell-based, human
Protocol: Cells were incubated for 15 minutes at RT, then immediately measured on a BD Accuri. Gates were drawn based off single-stain and no-stain controls. For cell cycle and TUNEL analysis, cells plated at 1 M/mL were treated with drug for indicated timepoints and doses and pulsed with 10 μM ethynyl-EdU (Thermo #C10424) for 2 hours prior to harvesting on ice. 1 M cells were counted and washed in 2.5% FBS/PBS. Cells were resuspended at 10 M/mL and fixed in 4% PFA, washed, and permeabilized in 0.5% Triton-X100/PBS. […] Gates were drawn based off single-stain and no-stain controls and kept constant across conditions. Cancers can evade cell killing by many chemotherapeutics that function only during a specific stage of the cell cycle. […] The assay allows the analysis of the percentage of apoptotic cells in each cell population: G0/G1, G2/M, and S phase cells (FIG. 34). […] The finding implies that unlike many conventional chemotherapeutics, BRD4-BCL6-TCIPs could kill cancer cells without periods of potential insensitivity.

[4] = test system: primary human tonsillar lymphocytes; experiment: Cell viability of primary human tonsillar lymphocytes; type: cell-based; details: 72 hours, read-out: EC50 of killing of lymphocytes
Protocol: as §1, §2, §3

[5] = mouse, 3 mg/Kg IV, individual mice and Avg., 3 mg/kg
[6] = mouse, 3 mg/Kg IV, individual mice and Avg., 3 mg/kg, mean
[7] = mouse, 10 mg/Kg IP, individual mice and Avg., 10 mg/kg
[8] = mouse, 10 mg/Kg IP, individual mice and Avg., 10 mg/kg, mean
[9] = C57BL/6 mice, 10 mg/kg IP once daily for 5 days
[10] = RNA-seq, 10 mg/kg IP q.d. 5 days

In the case of `CNC(=O)COc1cc2cc(Nc3nc(N4CCC(C(=O)NCCCCCCCNC(=O)C[C@@H]5N=C(c6ccc(Cl)cc6)c6c(sc(C)c6C)-n6c(C)nnc65)CC4)ncc3Cl)cc(OC)c2n(C)c1=O` [JWZ-7-7, (S)-1-(5-chloro-4-((8-methoxy-1-methyl-3-(2-(methylamino)-2-oxoethoxy)-2-oxo-1,2-dihydroquinolin-6-yl)amino)pyrimidin-2-yl)-N-(7-(2-(4-(4-chlorophenyl)-2,3,9-trimethyl-6H-thieno[3,2-f][1,2,4]triazolo[4,3-a][1,4]diazepin-6-yl)acetamido)heptyl)piperidine-4-carboxamide], the half-life ([1]; C57BL/6, mouse, serum, ip, 10 mg/kg, 10 mg/Kg IP, individual mice and Avg.) is reported as 5.63 h, the Stability in serum ([1]; mouse) is reported as “stable in serum” and the “AUC% Extrap” value [1, 5] is reported as 6.66% and 9.35% and 9.79%. For the same compound, the AUCINF_obs [1, 5] was 797713 ng·min/mL and 444167 ng·min/mL and 988029 ng·min/mL, the AUClast [1, 5] was 744580 min*ng/mL and 12.11 μM · hr and 402652 min*ng/mL and 6.55 μM · hr and 891309 min*ng/mL and 14.50 μM · hr and the CI_obs [1, 5] was 3.8 mL/min/kg and 6.8 mL/min/kg and 3.0 mL/min/kg. For the same compound, the Cmax [1, 5] was 31100 ng/mL and 14500 ng/mL and 36500 ng/mL, the MRTINF_obs [1, 5] was 2.39 h and 2.14 h and the T1/2 [1, 5] was 3.74 h and 3.93 h and 5.73 h. For the same compound, the Vss_obs [1, 5] was 0.36 L/kg and 0.97 L/kg and 0.39 L/kg, the “AUC% Extrap” value [1, 6] was 8.60% and the AUCINF_obs [1, 6] was 743303 ng·min/mL. The AUClast [1, 6] was 679514 min*ng/mL and 11.06 μM · hr, the CI_obs [1, 6] was 4.5 mL/min/kg and the Cmax [1, 6] was 27367 ng/mL. For the same compound, the MRTINF_obs [1, 6] was 2.04 h, the Vss_obs [1, 6] was 0.57 L/kg and the Cmax ([1]; mouse, 3 mg/Kg IV, individual mice and Avg., 3 mg/kg, mean, read-out: Cmax) was 26.7 µM. The Cmax ([1]; mouse, 3 mg/Kg IV, individual mice and Avg., 3 mg/kg, read-out: Cmax) was 30.4 µM and 14.2 µM and 35.6 µM, the “AUC% Extrap” value [1, 7] was 42.22% and 42.00% and 38.85% and the AUCINF_obs [1, 7] was 174254 ng·min/mL and 349182 ng·min/mL and 315593 ng·min/mL. The AUClast [1, 7] was 100685 min*ng/mL and 1.64 μM · hr and 202511 min*ng/mL and 3.29 μM · hr and 192976 min*ng/mL and 3.14 μM · hr, the Cl_obs [1, 7] was 57.4 mL/min/kg and 28.6 mL/min/kg and 31.7 mL/min/kg and the Cmax [1, 7] was 389 ng/mL and 805 ng/mL and 885 ng/mL. For the same compound, the T1/2 [1, 7] was 5.48 h and 6.32 h and 5.08 h, the Tmax [1, 7] was 0.50 h and 1.00 h and the “AUC% Extrap” value [1, 8] was 41.03%. For the same compound, the AUCINF_obs [1, 8] was 279676 ng·min/mL, the AUClast [1, 8] was 165391 min*ng/mL and 2.69 μM · hr and the Cl_obs [1, 8] was 39.2 mL/min/kg. For the same compound, the Cmax [1, 8] was 693 ng/mL, the Tmax [1, 8] was 0.53 h and the Cmax ([1]; mouse, 10 mg/Kg IP, individual mice and Avg., 10 mg/kg, mean, read-out: Cmax) was 0.68 µM. For the same compound, the Cmax ([1]; mouse, 10 mg/Kg IP, individual mice and Avg., 10 mg/kg, read-out: Cmax) was 0.38 µM and 0.79 µM and 0.86 µM, the half-life ([1]; mouse, serum, iv, 3 mg/kg, 3 mg/Kg IV, individual mice and Avg.) was 4.47 h and the MRT inf ([1]; mouse, serum, iv, 3 mg/kg, 3 mg/Kg IV, individual mice and Avg., read-out: MRTINF_obs) was 1.59 h. For the same compound, the Tmax ([1]; mouse, serum, iv, 3 mg/kg, 3 mg/Kg IV, individual mice and Avg., read-out: Tmax) was 0.08 h.
For `CNC(=O)COc1cc2cc(Nc3nc(N4CCC(C(=O)NCCCCCCCNC(=O)C[C@@H]5N=C(c6ccc(Cl)cc6)c6c(sc(C)c6C)-n6c(C)nnc65)CC4)ncc3Cl)cc(OC)c2n(C)c1=O` [TCIP1], the EC50 [2] was about 470 nM, the Body weight change [3, 9] was “no significant changes in mouse body weight” and the “H & E staining and examination of tissue” value [3, 9] was “did not reveal noticeable abnormalities”. For the same compound, the Tolerability [3, 9] was “well-tolerated with no adverse effects noticed”, the “Genes downregulated in the liver” value [3, 10] was 167 genes and the “Genes downregulated in the lung” value [3, 10] was 204 genes. The “Genes downregulated in the spleen” value [3, 10] was 2,471 genes, the “Genes upregulated in the liver” value [3, 10] was 255 genes and the “Genes upregulated in the lung” value [3, 10] was 301 genes. For the same compound, the “Genes upregulated in the spleen” value [3, 10] was 2,785 genes, the Kd (BRD4^BD1) was 5080 nM and the Cell cycle block (KARPAS422; KARPAS422) was “both a G1/S and G2/M block”. For the same compound, the “Cell cycle phases in which cell death occurs (TUNEL)” value (KARPAS422; KARPAS422, 100 nM) was “all phases of the cell cycle” and the EC50 [4] was 210 nM.

Source: patent publication US12685777B2, “Compositions, systems, and methods for modulating a target gene” (The Board of Trustees of the Leland Stanford Junior …, priority 2022, dated 2026)
